Experimental data from patent publication US12533350B2, “Use of melanocortin-1 receptor agonist” (TANABE PHARMA CORPORATION, priority 2022, dated 2026).

Tested on: lung tissue gene expression in BLM-induced SSc model
Settings: 0.3 mg/kg
Method: Total RNA of mouse lung tissue samples of PBSY_vehicle (control group without disease), BLM_vehicle (control group with disease), and BLM_Compound A (0.3 mg/kg) obtained from the BLM-induced SSc model (prophylactic evaluation) was used for analysis. The purity, concentration, and quality of the RNA samples were confirmed with NanoDrop 2000 (Thermo Fisher Scientific) and Agilent 2100 bioanalyser (Agilent Technologies). The RNA was then Cy3-labeled using a Low Input Quick Amp Labeling Kit, one-color (Agilent Technologies). Labeled cRNA samples were fragmented, and then hybridized with the Agilent SurePrint G3 Mouse GE v2 8×60 K Microarray (Agilent Technologies) using a Gene Expression Hybridization Kit (Agilent Technologies). After hybridization, the microarray was washed with the Gene Expression Wash Buffers Pack (Agilent Technologies) and imaged with a scanner to detect the signals. Signal intensities were evaluated with Agilent Feature Extraction software 12.0.
Bioinformatics analysis in this study was performed with software, including GeneSpring GX 14.9.1, IPA 2019 autumn, and Microsoft Excel 2010. Genes that fluctuated ≥2 fold in BLM_vehicle group in comparison with those of the PBS_vehicle group and that satisfied a p-value <0.05 of the moderated t-test were defined as “differentially expressed genes (DEGs) in the disease model”. Among DEGs, the genes in the Compound A treatment group that fluctuated ≥1.5 fold in the opposite direction and met a p-value <0.05 of the moderated t-test in comparison with those of the BLM_vehicle group were defined as “DEGs by Compound A treatment”. DEGs were inputted into IPA and two types of calculations were performed: “Canonical pathways” and “Diseases or functions”. Here, “Canonical pathways” is described as “pathways” and “Diseases or functions” is described as “category”. The former contains a list for a series of gene interactions and the latter is a list related to diseases and biological functions. These datasets are registered in the IPA software. Initially, the Fisher's exact test was used to calculate the probability of overlap between two sets of genes. Thereafter, downstream effect analysis (DSEA) was used to calculate the activation z-score. DSEA is a technique for predicting the direction of change in expression patterns (either activation or inhibition) based on the expected causal effects between genes and functions. Based on the results of the DSEA analysis, information about the cell type (macrophages, neutrophils, mononuclear leukocytes, T-lymphocytes, B-lymphocytes, smooth muscle cells, endothelial cells, epithelial cells, and fibroblasts) that may be involved in the pathogenesis of SSc was extracted. Subsequently, information regarding biological functions and molecular signaling pathways, such as inflammation/immune abnormality, vascular dysfunction, and fibrosis, involved in the pathogenesis of SSc are extracted.
DNA microarray analysis was carried out using lung samples from a BLM-induced SSc model (prevention model) to which 0.3 mg/kg of Compound A was administered. Bioinformatics analysis was carried out using IPA software, and two datasets were used to perform two types of calculations (“Canonical pathways” and “Diseases or functions”). Downstream effect analysis was used to calculate the activation z-score.

COC[C@H]1CN(C(=O)[C@]2(F)CN(C3CCCC3)C[C@H]2c2ccc(OC)cc2)C[C@@H]1c1ccc(C(F)(F)F)cc1N1CCC(C(=O)O)CC1 [Compound A, 1-{2-[(3S,4R)-1-{[(3R,4R)-1-cyclopentyl-3-fluoro-4-(4-methoxyphenyl)pyrrolidin-3-yl]carbonyl}-4-(methoxymethyl)pyrrolidin-3-yl]-5-(trifluoromethyl)phenyl}piperidine-4-carboxylic acid]
gene expression fluctuation induced by BLM in IL-6 pathway genes (upstream and downstream): reversed | IL-6 signaling pathway (IPA canonical pathways): affected | PPAR signaling pathway (IPA canonical pathways): affected | TREM1 signaling pathway (IPA canonical pathways): affected | oncostatin M signaling pathway (IPA canonical pathways): affected | category activation of antigen-presenting cells (activated by BLM) (IPA downstream effect analysis): suppressed | category angiogenesis (activated by BLM) (IPA downstream effect analysis): suppressed | category atherosclerosis (activated by BLM) (IPA downstream effect analysis): suppressed | category inflammatory response (activated by BLM) (IPA downstream effect analysis): suppressed | category vasculogenesis (activated by BLM) (IPA downstream effect analysis): suppressed | category vaso-occlusion (activated by BLM) (IPA downstream effect analysis): suppressed | number of DEGs by Compound A treatment (≥1.5 fold in opposite direction, p<0.05 vs BLM_vehicle) (among 3337 DEGs in the disease model): 1477 | T-lymphocyte-related categories (IPA activation z-score) (not changed by BLM): suppressed | endothelial cell-related categories (IPA activation z-score) (not changed by BLM): suppressed | expression of the IL-6 gene among component genes of the IL-6 signaling pathway (remarkably upregulated by BLM): downregulated the most
